Results taken from patent publication US8551721B2, “Bioluminescent detection of cyanohydroxy benzothiazole compounds” (Promega Corporation, priority 2008, dated 2013).

Tests used:
Assay type in all cases: biochemical
UGT 1A6 = target: T1, UGT 1A6 (Homo sapiens, UniProt P19224); experiment: UGT activity: utilization of substrate by recombinant UGT 1A6 Supersomes; settings: 2 hour incubation at 37° C., plus vs minus UDPGA
T1 construct: purchased BD Gentest; host or cells: insect cells (microsomes)
T1 sequence (P19224 27-532): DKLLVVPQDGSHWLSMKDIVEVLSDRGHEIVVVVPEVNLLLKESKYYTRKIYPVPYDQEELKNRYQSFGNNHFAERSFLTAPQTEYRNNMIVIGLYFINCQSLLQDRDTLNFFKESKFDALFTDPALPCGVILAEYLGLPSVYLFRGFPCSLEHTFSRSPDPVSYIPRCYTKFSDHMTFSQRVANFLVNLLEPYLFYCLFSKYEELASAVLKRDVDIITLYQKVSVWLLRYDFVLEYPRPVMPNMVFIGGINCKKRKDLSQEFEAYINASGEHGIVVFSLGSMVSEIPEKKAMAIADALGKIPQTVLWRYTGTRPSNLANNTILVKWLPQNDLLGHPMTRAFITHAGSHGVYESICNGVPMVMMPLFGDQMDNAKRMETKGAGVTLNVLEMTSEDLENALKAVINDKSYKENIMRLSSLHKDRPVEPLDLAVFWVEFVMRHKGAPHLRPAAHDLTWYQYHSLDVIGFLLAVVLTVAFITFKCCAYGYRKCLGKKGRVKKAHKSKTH
Method: (§1) The invention includes a method of determining activity of the uridine 5′-diphospho-glucuronosyltransferase (UDP-glucuronosyltransferase, or UGT) family enzymes in vitro. Briefly, UGT enzymes from overexpressed insect microsomes (Supersomes™, BD Gentest™) or animal tissue microsomes (Xenotech, BD Gentest™) were incubated with a cyanobenzothiazole substrate of the invention and the cofactor UDP-glucuronic acid (UDPGA) at 37° C. in buffer at physiological pH containing MgCl2 and alamethicin (typically, 50 mM TES, pH 7.5, 8 mM MgCl2, 4 mM UDPGA (Sigma) and 25 μg/mL alamethicin (Sigma)). Following the UGT enzyme reaction, an equal volume of P450-Glo Luciferin Detection Reagent (Promega) containing 15-30 mM D-cysteine-HCl.H2O (Sigma) was added and the plate was mixed and incubated at room temperature, typically for 20-30 minutes. […]
(§2) During this incubation, the cysteine reacts with the cyanobenzathiozole substrate to yield a D-luciferin derivative. […] Therefore, activity of the UGT enzyme can be measured by analyzing the difference (lower or no output) in relative light units (RLU) of a sample in which glucuronidation occurs compared to a sample that was run under the same conditions with no added UDPGA cofactor. […]
(§3) Reactions were assembled in a white 96-well plate. […] After the incubation was completed, the plate was read on a Veritas™ luminometer (Turner BioSystems, Inc.; Sunnyvale, Calif.). […]

UGT 1A7 = target: T2, UGT 1A7 (Homo sapiens, UniProt Q9HAW7); experiment: UGT activity: utilization of substrate by recombinant UGT 1A7 Supersomes; settings: 2 hour incubation at 37° C., plus vs minus UDPGA
T2 construct: purchased BD Gentest; host or cells: insect cells (microsomes)
T2 sequence (Q9HAW7 26-530): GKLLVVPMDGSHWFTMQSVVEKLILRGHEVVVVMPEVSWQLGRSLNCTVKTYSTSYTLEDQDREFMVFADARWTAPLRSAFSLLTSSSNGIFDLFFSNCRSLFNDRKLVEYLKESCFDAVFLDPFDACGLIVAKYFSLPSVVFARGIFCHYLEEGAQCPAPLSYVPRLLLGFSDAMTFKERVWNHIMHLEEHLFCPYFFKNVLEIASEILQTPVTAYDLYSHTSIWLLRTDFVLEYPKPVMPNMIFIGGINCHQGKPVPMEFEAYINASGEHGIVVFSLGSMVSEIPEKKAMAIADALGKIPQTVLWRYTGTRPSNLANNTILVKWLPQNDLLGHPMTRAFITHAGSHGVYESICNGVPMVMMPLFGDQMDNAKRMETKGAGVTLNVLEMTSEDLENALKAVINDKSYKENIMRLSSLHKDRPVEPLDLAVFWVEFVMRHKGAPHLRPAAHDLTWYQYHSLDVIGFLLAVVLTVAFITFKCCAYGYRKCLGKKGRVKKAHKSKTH
Method: as §1, §2, §3

UGT 1A9 = target: T3, UGT 1A9 (Homo sapiens, UniProt O60656); experiment: UGT activity: utilization of substrate by recombinant UGT 1A9 Supersomes; settings: 2 hour incubation at 37° C., plus vs minus UDPGA, background corrected
T3 construct: purchased BD Gentest; host or cells: insect cells (microsomes)
T3 sequence (O60656 26-530): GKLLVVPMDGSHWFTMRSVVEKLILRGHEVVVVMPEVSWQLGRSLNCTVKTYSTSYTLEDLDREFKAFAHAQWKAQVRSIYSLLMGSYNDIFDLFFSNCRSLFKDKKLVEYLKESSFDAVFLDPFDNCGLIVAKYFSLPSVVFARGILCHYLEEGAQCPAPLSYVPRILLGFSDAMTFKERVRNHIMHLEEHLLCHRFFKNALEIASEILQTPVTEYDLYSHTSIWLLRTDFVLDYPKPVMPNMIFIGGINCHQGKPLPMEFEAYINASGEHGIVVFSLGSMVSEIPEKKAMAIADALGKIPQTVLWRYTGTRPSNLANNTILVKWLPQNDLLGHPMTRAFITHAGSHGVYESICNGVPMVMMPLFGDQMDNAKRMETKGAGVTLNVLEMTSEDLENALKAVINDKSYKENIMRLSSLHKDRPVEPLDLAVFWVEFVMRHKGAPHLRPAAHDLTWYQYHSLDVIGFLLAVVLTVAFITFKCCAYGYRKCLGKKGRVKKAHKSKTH
Method: as §1, §2, §3

| SMILES | utilization by UGT 1A6 (in words) (UGT 1A6) | utilization by UGT 1A7 (in words) (UGT 1A7) | % utilization by UGT 1A9 (UGT 1A9) |
| --- | --- | --- | --- |
| Cc1cc(O)cc2sc(C#N)nc12 [compound 3138] | detectable levels of utilization above background | detectable levels of utilization above background | over 50% |
| Cc1cc(O)cc2sc(C3=NC(C(=O)O)CS3)nc12 (stereo not drawn) [compound 3478] | only UGT 1A6 was able to utilize compound 3478 to any appreciable extent | only UGT 1A6 was able to utilize compound 3478 to any appreciable extent | ≤ 15% |
